Measurements from patent US7767398B2, “Means and methods for diagnosing and treating affective disorders” (Affectis Pharmaceuticals AG, priority 2003, dated 2010).

Experiments:
P2X7R = biological target: T1, P2X7R (Mus musculus, UniProt Q9Z1M0); assay: Entry of ethidium bromide into HT-22 cells; assay type: cell-based; conditions: HT-22 cells, 60 minutes, 10^−4M ethidium bromide; 1 μM to 1 mM tested
T1 construct: an immortalised mouse hippocampal cell line expressing the endogenous P2X7 gene; endogenous in cells; host or cells: HT-22 mouse hippocampal cell line
T1 sequence (Q9Z1M0 1-595): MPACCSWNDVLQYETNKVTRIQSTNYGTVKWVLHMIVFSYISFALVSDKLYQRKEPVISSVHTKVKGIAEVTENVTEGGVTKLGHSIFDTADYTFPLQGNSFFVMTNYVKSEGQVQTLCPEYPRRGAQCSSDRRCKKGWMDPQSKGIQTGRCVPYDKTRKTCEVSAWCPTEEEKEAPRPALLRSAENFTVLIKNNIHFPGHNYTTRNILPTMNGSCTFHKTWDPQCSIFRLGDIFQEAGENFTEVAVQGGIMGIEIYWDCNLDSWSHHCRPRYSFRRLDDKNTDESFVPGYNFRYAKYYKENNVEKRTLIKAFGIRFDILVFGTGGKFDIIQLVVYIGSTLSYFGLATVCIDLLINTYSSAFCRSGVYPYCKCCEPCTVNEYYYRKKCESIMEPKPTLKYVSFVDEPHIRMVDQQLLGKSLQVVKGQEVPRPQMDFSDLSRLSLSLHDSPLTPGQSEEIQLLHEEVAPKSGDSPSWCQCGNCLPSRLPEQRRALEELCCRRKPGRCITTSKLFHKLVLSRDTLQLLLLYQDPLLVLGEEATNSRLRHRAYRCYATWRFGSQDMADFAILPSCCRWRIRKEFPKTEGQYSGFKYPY
Description: Yet another method of measuring P2X7R activity involves the entry of ethidium bromide into P2X7R expressing cells. Activation of P2X7R by an agonist allows the entry of ethidium bromide which binds nuclear DNA and emits a fluorescence signal. Alternatively, the propidium dye YOPRO-1 can be substituted for ethidium bromide. An increase in fluorescence can be used as a measure of P2X7 receptor activation. Therefore, the assay can be used to test and quantify the effect of an agent or compound with agonist properties on P2X7R. In the present example, 10^3 HT-22 cells were seeded per well in a 96-well flat bottom microtitre plates and incubated at 37° C./5% CO2 in DMEM medium containing 10% FCS until the cells attached to the culture surface. […] The number of fluorescent cells which have integrated the ethidium bromide to the DNA can then be counted using a fluorescent microscope (Zeiss, Germany). […] Alternatively, ethidium bromide fluorescence can be measured using a Perkin-Elmer fluorescent plate reader (excitation 520 nm, emission 595 nm, slit widths: Ex 15 nm, Em 20 nm). From the readings obtained, a pIC50 figure can be calculated for each candidate agent or compound. […] The specificity of an agonist for P2X7R can be evaluated by pre-incubation of the cells for 60 minutes with 100 μM o-ATP before adding the agonist and ethidium bromide dye.

mice = assay: Open field test (locomotor activity); conditions: 50 μM BzATP, 24 hours after injection, vs vehicle
Description: Locomotor activity was monitored for a period of 30 minutes using a video camera. Overall distance traveled by the animals during the testing period was then analysed by means of VideoMot2 computer software (TSE GmbH, Bad Homburg).

## 2′-3′-O-(4-Benzoylbenzoyl)adenosine 5′-triphosphate [BzATP]
P2X7R
  BzATP concentrations that increased the number of fluorescent nuclei: above 100 μM
mice
  locomotor activity (overall distance traveled, 30 minutes): No difference in locomotor activity
